Results as given in publication PMC11460631, “Inhibition of transient receptor potential vanilloid 3 channels by antimalarial hydroxychloroquine alleviates TRPV3-dependent dermatitis” (The Journal of Biological Chemistry, 2024).

Assays:
[1] = biological target: T1, TRPV3 L670A + L591A double mutant (Homo sapiens, UniProt Q8NET8, L591A/L670A); test: Whole-cell recording of TRPV3 L591A/L670A double mutant; assay type: cell-based; conditions: L670A introduced to L591A mutant
T1 construct: YFP or GFP; expressed in transfected cells; host or cells: HEK293T
T1 sequence (Q8NET8 1-790 L591A/L670A): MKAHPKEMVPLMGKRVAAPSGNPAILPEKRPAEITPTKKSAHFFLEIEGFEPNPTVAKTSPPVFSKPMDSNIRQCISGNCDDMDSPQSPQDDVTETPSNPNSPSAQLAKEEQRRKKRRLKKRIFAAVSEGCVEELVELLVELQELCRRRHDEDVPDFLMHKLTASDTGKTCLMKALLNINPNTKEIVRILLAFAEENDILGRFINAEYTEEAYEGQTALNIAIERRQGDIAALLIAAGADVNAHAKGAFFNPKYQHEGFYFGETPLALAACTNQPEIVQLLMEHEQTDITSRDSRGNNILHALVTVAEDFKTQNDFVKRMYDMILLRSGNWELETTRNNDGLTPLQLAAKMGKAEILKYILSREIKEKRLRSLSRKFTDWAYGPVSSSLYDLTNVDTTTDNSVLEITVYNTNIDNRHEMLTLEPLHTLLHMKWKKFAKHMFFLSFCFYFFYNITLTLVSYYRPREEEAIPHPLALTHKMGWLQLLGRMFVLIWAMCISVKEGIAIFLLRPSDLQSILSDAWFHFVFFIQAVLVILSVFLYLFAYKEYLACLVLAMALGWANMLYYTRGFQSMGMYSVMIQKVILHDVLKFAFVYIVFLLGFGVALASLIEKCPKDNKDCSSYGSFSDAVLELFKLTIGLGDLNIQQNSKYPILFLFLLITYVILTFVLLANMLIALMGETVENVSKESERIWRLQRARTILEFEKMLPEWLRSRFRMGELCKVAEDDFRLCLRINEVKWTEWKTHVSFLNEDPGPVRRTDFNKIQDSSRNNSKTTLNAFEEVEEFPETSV
From the text: As we mentioned above, HCQ may act as a pore blocker of TRPV3. To probe the binding configuration of HCQ to TRPV3, we carried out molecular docking using Rosetta suite (https://rosettacommons.org) ([21]) and validated the docking models with point mutations in TRPV3 (Fig. 4A). […] Furthermore, when we introduced L670A to L591A mutant, we also observed a left shift on the concentration–response curve on this double mutant as compared to L591A mutant (Fig. 4H).
Figure 4 Residues of the pore domain are critical for HCQ inhibition on TRPV3.A, left panel, docking model of HCQ to the pore domain of TRPV3 structure (6uw4). Right panels, top view and side view of the HCQ-binding pocket. B-J, representative whole-cell recording of TRPV3 and mutants in response to 1 mM 2-APB, the mixture of 1 mM 2-APB and concentration gradients of HCQ with the holding potential of ± 80 mV. K, concentration–response curves of HCQ in WT TRPV3 and mutants (n = 3–5 cells). L, quantification of the inhibitory ratio of HCQ (100 μM) on WT, L591A, and N671Q. Data are presented as mean ± SEM (n = 3–6 cells); F (2, 10) = 8.115, p = 0.0081 by one-way ANOVA using Dunnett’s multiple comparisons test. ∗∗, p = 0.0070 WT versus L591A; ∗, p = 0.0100 WT versus N671Q. 2-APB, 2-aminoethoxydiphenylborate; HCQ, hydroxychloroquine; TRP, transient receptor potential; TRPV3, transient receptor potential vanilloid 3 channel. […]

[2] = test system: C57BL/6J male mice; test: Carvacrol-induced AD-like mouse model: skin appearance scores and H&E epidermal thickness; assay type: in vivo
Experimental: We therefore generated a carvacrol-induced AD mouse model to test the effect of HCQ.
To investigate the effect of HCQ on carvacrol-induced dermatitis in animals, C57BL/6J male mice (aged 6 weeks) were obtained from the Animal Experimental Center of Hangzhou Medical College (Hangzhou, Zhejiang Province). Mice were housed and maintained in an environment with a 12-h light/dark cycle and a controlled temperature of 22.0 ± 2.0 °C. Food and water were accessible ad libitum. All the animal procedures were approved by the Institutional Animal Care & Use Committee of Zhejiang Center of Laboratory Animals (ZJCLA).
To generate an AD-like mice model, 2% carvacrol (dissolved in 30% ethanol solution) was topically smeared onto the mice dorsum 1 day after hair removal with a depilatory cream (Vetin Depilatory Cream). Mice received a topical administration of an equal volume (200 μl) of 2% carvacrol or in the presence of 2 mg/ml HCQ. […] After the application of carvacrol for 5 days, the external appearance of mice was photographed and then sampled. The external appearance was graded based on three aspects: thickness, erythema/bleeding, and dryness/desquamation, with severity assessed on a score of 0 to 4. The degree of thickness was measured by the thickness of the skin in H&E staining. Skin tissues were either fixed in 4% paraformaldehyde or placed in PBS buffer containing 1% protease inhibitor, facilitating subsequent steps of paraffin embedding or ELISA experiments.
Mice were sacrificed 24 h after the last dose of treatment. Mouse dorsal skin was removed with scissors and forceps before being fixed with 4% paraformaldehyde. Paraffin-embedded tissues were sectioned and stained with H&E. Pictures of stained sections were acquired with a Nikon Eclipse Ti-S microscope with a charge-coupled device camera (DS-Ri2, Nikon).

## CCN(CCO)CCCC(C)Nc1ccnc2cc(Cl)ccc12 (stereo not shown) [HCQ, hydroxychloroquine]
[1]
  shift of concentration–response curve on double mutant as compared to L591A mutant: left shift
[2]; score of 0 to 4, topical, 5 days, 2% carvacrol alone or with HCQ 2 mg/ml
  dry desquamation score: 1.50 ± 0.22
[2]; score of 0 to 4, topical, 5 days, 2% carvacrol alone or with HCQ 2 mg/ml or DXM 1 mg/ml
  erythema score: 1.67 ± 0.33
[2]; topical with 2% carvacrol, once a day for 5 days, HCQ 2 mg/ml, DXM 1 mg/ml, 200 μl
  epidermal thickness (H&E staining): 51.49 ± 3.01 μm
